What was measured:
[1] = test system: mouse vas deferens; details: inhibition of electrically induced contractions, Met Enkephalin = 100%
Description: (ii) M.V.D. stands for mouse vas deferens
were performed as described in the literature

[2] = test system: rat brain membranes; test: Radio receptor assay (R.R.A.), an opiate binding assay: displacement of tritiated naloxone from rat brain membranes; details: based on concentration required to displace 50% of (3H)naloxone (1nM) from rat brain membranes; pH 7.4, 15 minutes, bacitracin; Met Enkephalin = 100%

**Q.** With `CSCC[C@H](NC(=O)[C@H](Cc1ccccc1)NC(=O)CNC(=O)CCCC(N)Cc1ccc(O)cc1)C(N)=O` (stereo partly drawn) [Analogue H211, 5-Amino-6-(4'-hydroxyphenyl)-hexanoyl-glycyl-L-phenylalanyl-L-methionine amide] as the molecule, how does the “Activity Relative to Met Enkephalin M.V.D.” value [1] read?
**A.** Its value is 0.9%.

**Q.** What about the “Activity Relative to Met Enkephalin R.R.A.” value [2] of the same molecule?
**A.** Its value is 9%.

Reference: patent US4304715A, “Enkephalin analogues” (priority 1979, dated 1981)
